Where “and” joins values, the source holds several entries; their conditions need not be identical. Equal entries are not always repeated.
Which melting point does the source give for `COc1ccc([C@@H]2CC(=O)c3c(O)cc(O)cc3O2)cc1O` [hesperetin] here?
Its melting point is 228 °C.

For `Clc1c(Cl)c(Cl)c(Cl)c(Cl)c1Cl` [hexachlorobenzene] [listing 1 of 2 here], which melting point is on record?
The melting point was 231 °C.

Which melting point does the source give for `Clc1c(Cl)c(Cl)c(Cl)c(Cl)c1Cl` [hexachlorobenzene] [listing 2 of 2 here] here?
The melting point was 230 °C and 229 °C.

Which melting point does the source give for `Cc1c(C)c(C)c(C)c(C)c1C` [hexamethylbenzene] here?
The melting point was 165 °C.

For `CCCCCC(N)=O` [hexanamide], which melting point is on record?
Its melting point is 101 °C.

With `O=C(O)CNC(=O)c1ccccc1` [hippuric acid] as the compound, how does the melting point read?
Its melting point is 190 °C.

Which melting point does the source give for `O=C1Cc2ccccc2C(=O)O1` [homophthalic anhydride] here?
The melting point was 142 °C.

With `O=C1CNC(=O)N1` [hydantoin] as the compound, how does the melting point read?
Its melting point is 222 °C.

For `c1ccc(NNc2ccccc2)cc1` [hydrazobenzene], which melting point is on record?
Its melting point is 125 °C.

For `NS(=O)(=O)c1cc2c(cc1Cl)NCNS2(=O)=O` [hydrochlorothiazide], which melting point is on record?
Its melting point is 269 °C.

With `C[C@]12CCC(=O)C=C1CC[C@@H]1[C@@H]2[C@@H](O)C[C@@]2(C)[C@H]1CC[C@]2(O)C(=O)CO` [hydrocortisone] [listing 1 of 2 here] as the compound, how does the melting point read?
Its melting point is 214 °C.

Which melting point does the source give for `C[C@]12CCC(=O)C=C1CC[C@@H]1[C@@H]2[C@@H](O)C[C@@]2(C)[C@H]1CC[C@]2(O)C(=O)CO` [hydrocortisone] [listing 2 of 2 here] here?
Its melting point is 221 °C.

With `Cc1ccc(S(=O)(=O)OI(O)c2ccccc2)cc1` [hydroxy(tosyloxy)iodobenzene] as the compound, how does the melting point read?
The melting point was 134 °C.

Which melting point does the source give for `CC(C)Cc1ccc(C(C)C(=O)O)cc1` (centres undefined) [ibuprofen] here?
Its melting point is 75 °C.

For `CC(C(O)c1ccc(O)cc1)N1CCC(Cc2ccccc2)CC1` (centres undefined) [ifenprodil], which melting point is on record?
Its melting point is 114 °C.

With `O=P1(NCCCl)OCCCN1CCCl` (centres undefined) [ifosfamide] as the compound, how does the melting point read?
Its melting point is 45.5 °C and 48 °C.

For `c1ccc2c(c1)CCC2` [indane], which melting point is on record?
Its melting point is -51 °C.

For `OB(O)c1ccc2[nH]ccc2c1` [indole-5-boronic acid], which melting point is on record?
Its melting point is 173 °C.

For `O=C(NC1CCN(CCc2c[nH]c3ccccc23)CC1)c1ccccc1` [indoramin], which melting point is on record?
Its melting point is 208 °C.

Which melting point does the source give for `Ic1ccccc1` [iodobenzene] here?
Its melting point is -31 °C.

With `IC(I)I` [iodoform] as the compound, how does the melting point read?
The melting point was 122 °C.

With `CC(C)Oc1ccc2c(=O)c(-c3ccccc3)coc2c1` [ipriflavone] as the compound, how does the melting point read?
Its melting point is 115 °C.

With `CCOP(=S)(OCC)Oc1nc(Cl)n(C(C)C)n1` [isazophos] as the compound, how does the melting point read?
Its melting point is 25 °C.

With `O=C(O)CCCCC=C(c1ccccc1)c1cccnc1` [isbogrel] as the compound, how does the melting point read?
The melting point was 114 °C.

With `CC(=O)OCCC(C)C` [isoamyl_acetate] as the compound, how does the melting point read?
The melting point was -78 °C.

For `CC(C)CN` [isobutylamine], which melting point is on record?
The melting point was -85 °C.

For `CC(C)C(N)=O` [isobutyramide], which melting point is on record?
The melting point was 129 °C.

For `CC(C)C(=O)c1ccccc1` [isobutyrophenone], which melting point is on record?
Its melting point is 1 °C.

With `C/C=C/c1ccc(O)c(OC)c1` [isoeugenol, cis trans] as the compound, how does the melting point read?
Its melting point is -10 °C.

With `NNC(=O)c1ccncc1` [isoniazid] as the compound, how does the melting point read?
The melting point was 171 °C.

For `NNC(=O)c1ccncc1` [isonicotinic acid hydrazide], which melting point is on record?
The melting point was 172 °C.

With `O=C(O)c1cc[n+]([O-])cc1` [isonicotinic acid n-oxide] as the compound, how does the melting point read?
Its melting point is 270 °C.

Which melting point does the source give for `CC(=O)OCCC(C)C` [isopentyl acetate] here?
The melting point was -78 °C.

With `COC(=O)c1cccc(C(N)=O)c1` [isophthalic_acid,_methylester_amide] as the compound, how does the melting point read?
The melting point was 148 °C.

For `O=C(Cl)c1cccc(C(=O)Cl)c1` [isophthaloyl dichloride], which melting point is on record?
The melting point was 44 °C.

For `C=CC(=C)C` [isoprene], which melting point is on record?
Its melting point is -146 °C.

For `CC(=O)CC(=O)OC(C)C` [isopropyl acetoacetate], which melting point is on record?
Its melting point is -27 °C.

With `CC(C)OC(=O)Nc1ccccc1` [isopropyl n-phenylcarbamate] as the compound, how does the melting point read?
Its melting point is 88 °C.

For `CC(C)C(C(=O)O)C(=O)O` [isopropylmalonic acid], which melting point is on record?
The melting point was 89 °C.

With `O=[N+]([O-])O[C@H]1CO[C@H]2[C@@H]1OC[C@H]2O[N+](=O)[O-]` [isosorbide dinitrate] as the compound, how does the melting point read?
The melting point was 70 °C.

For `CC(C)CC(=O)O` [isovaleric acid], which melting point is on record?
Its melting point is -29.3 °C.

For `CC(C(=O)O)c1cccc(C(=O)c2ccccc2)c1` (centres undefined) [ketoprofen], which melting point is on record?
Its melting point is 94 °C (2×) and 93 °C.

With `CC(CCc1ccccc1)NCC(O)c1ccc(O)c(C(N)=O)c1` (centres undefined) [labetalol] as the compound, how does the melting point read?
Its melting point is 188 °C.

Which melting point does the source give for `O=C(O)c1nn(Cc2ccc(Cl)cc2Cl)c2ccccc12` [lonidamine] here?
The melting point was 207 °C.

Which melting point does the source give for `O=C1Nc2ccc(Cl)cc2C(c2ccccc2Cl)=NC1O` (centres undefined) [lorazepam] here?
The melting point was 167 °C.

With `CC[C@H](C)C(=O)O[C@H]1C[C@@H](C)C=C2C=C[C@H](C)[C@H](CC[C@@H]3C[C@@H](O)CC(=O)O3)[C@H]21` [lovastatin] as the compound, how does the melting point read?
The melting point was 174 °C.

Which melting point does the source give for `OC[C@@H]1CCCN2CCCC[C@H]12` [lupinine] here?
The melting point was 64 °C.

With `O=[N+]([O-])c1cccc(C=NO)c1` [m-Nitrobenzaldehyde oxime] as the compound, how does the melting point read?
The melting point was 120 °C.

Which melting point does the source give for `CC(=O)c1cccc(N)c1` [m-aminoacetophenone] here?
The melting point was 97 °C.

With `Nc1cccc(O)c1` [m-aminophenol] as the compound, how does the melting point read?
The melting point was 125 °C.

With `COc1cccc(N)c1` [m-anisidine] as the compound, how does the melting point read?
Its melting point is 0 °C.

For `O=C(O)c1cccc(Br)c1` [m-bromobenzoic acid], which melting point is on record?
The melting point was 157 °C.

With `N#CCc1cccc(Br)c1` [m-bromophenylacetonitrile] as the compound, how does the melting point read?
The melting point was 28 °C.

With `N#CCc1cccc(C#N)c1` [m-cyano_phenylacetonitrile] as the compound, how does the melting point read?
Its melting point is 87 °C.

For `CC(C)c1cccc(C(C)C)c1` [m-diisopropylbenzene], which melting point is on record?
The melting point was -63 °C.

For `O=Cc1cccc(I)c1` [m-iodobenzaldehyde], which melting point is on record?
The melting point was 58 °C.

Which melting point does the source give for `Nc1cccc([N+](=O)[O-])c1` [m-nitroaniline] here?
Its melting point is 114 °C.

Which melting point does the source give for `Cc1cccc(C(=O)O)c1` [m-toluic_acid] here?
The melting point was 110 °C.

Which melting point does the source give for `Cc1cccc(N)c1` [m-toluidine] here?
The melting point was -30 °C.

Which melting point does the source give for `Cc1cccc(C(=O)CC#N)c1` [m-toluoylacetonitrile] here?
The melting point was 73 °C.

For `C=Cc1cccc(C(=O)O)c1` [m-vinylbenzoic_acid], which melting point is on record?
The melting point was 96 °C.

With `O=C(O)C=CC(=O)O` [maleic acid] as the compound, how does the melting point read?
The melting point was 134 °C.

For `OC[C@@H](O)[C@@H](O)[C@H](O)[C@H](O)CO` [mannitol], which melting point is on record?
Its melting point is 168 °C.

With `CNCCCC12CCC(c3ccccc31)c1ccccc12` [maprotiline] as the compound, how does the melting point read?
Its melting point is 92 °C.

For `CCc1c(C)[nH]c2ccc(N(C)C)cc12` [medmain], which melting point is on record?
The melting point was 100 °C.

With `Cc1cnc(s1)NC(=O)C\3=C(/O)c2ccccc2S(=O)(=O)N/3C` [meloxicam] as the compound, how does the melting point read?
The melting point was 254 °C.

With `Cc1cc(CCN2CCN(c3cccc(Cl)c3)CC2)n[nH]1` [mepiprazole] as the compound, how does the melting point read?
Its melting point is 106 °C.

For `CCCC(C)(COC(N)=O)COC(N)=O` [meprobamate] [listing 1 of 2 here], which melting point is on record?
Its melting point is 104 °C.

For `CCCC(C)(COC(N)=O)COC(N)=O` [meprobamate] [listing 2 of 2 here], which melting point is on record?
Its melting point is 105 °C.

For `CC(=O)C=C(C)C` [mesityl oxide], which melting point is on record?
The melting point was -59 °C.

For `Cc1cc(C)c(CC(=O)O)c(C)c1` [mesitylacetic acid], which melting point is on record?
Its melting point is 169 °C.

Which melting point does the source give for `Cc1cc(C)c(CC#N)c(C)c1` [mesitylacetonitrile] here?
Its melting point is 79 °C.

Which melting point does the source give for `C[C@H](O)[C@@H](C)O` [meso-2,3-butanediol] here?
The melting point was 34.5 °C and 33 °C.

With `O[C@H](c1ccccc1)[C@@H](O)c1ccccc1` [meso-hydrobenzoin] as the compound, how does the melting point read?
The melting point was 135 °C.

For `CC(C)NCC(O)c1cc(O)cc(O)c1` (centres undefined) [metaproterenol], which melting point is on record?
Its melting point is 100 °C.

With `C=C(C)C(=O)O` [methacrylic acid] as the compound, how does the melting point read?
The melting point was 16 °C.

Which melting point does the source give for `C=C(C)CC1(CC)C(=O)NC(=S)NC1=O` [methallatal] here?
Its melting point is 160 °C.

With `CS(N)(=O)=O` [methanesulfonamide] as the compound, how does the melting point read?
Its melting point is 90 °C.

For `CN1CCC(CN2c3ccccc3Sc3ccccc32)C1` (centres undefined) [methdilazine], which melting point is on record?
Its melting point is 87 °C.

Reference: the Bradley open melting point set (2014)
